Test results published in patent US20090297638A1.

Assays:
TNF-RE tkLuc = TNF-RE tkLuc reporter, effect of antiestrogens (ER subtype not given); format: cell-based, human; settings: for effect on the repression induced by E2: TNF-RE tkLuc, with E2; for activation of TNF-RE tkLuc: antiestrogens, in contrast to E2
Text: Plasmid Construction. […] ERβmutants were created with QuikChange site-directed mutagenesis kits (Stratagene), by using oligonucleotides containing the mutation. The mutants were sequenced with Sequenase kits (Amersham Pharmacia) to verify the presence of the mutation.

human ERβ = biological target: T1, human ERβ (Homo sapiens, UniProt Q92731); test: ERE-tk-Luc luciferase assay in U2OS osteosarcoma cells, ERβ; format: cell-based; settings: co-administration with the extract (Herb 16)
T1 construct: expressed in transfected cells; host or cells: U2OS (human osteosarcoma)
T1 sequence (Q92731 whole entry): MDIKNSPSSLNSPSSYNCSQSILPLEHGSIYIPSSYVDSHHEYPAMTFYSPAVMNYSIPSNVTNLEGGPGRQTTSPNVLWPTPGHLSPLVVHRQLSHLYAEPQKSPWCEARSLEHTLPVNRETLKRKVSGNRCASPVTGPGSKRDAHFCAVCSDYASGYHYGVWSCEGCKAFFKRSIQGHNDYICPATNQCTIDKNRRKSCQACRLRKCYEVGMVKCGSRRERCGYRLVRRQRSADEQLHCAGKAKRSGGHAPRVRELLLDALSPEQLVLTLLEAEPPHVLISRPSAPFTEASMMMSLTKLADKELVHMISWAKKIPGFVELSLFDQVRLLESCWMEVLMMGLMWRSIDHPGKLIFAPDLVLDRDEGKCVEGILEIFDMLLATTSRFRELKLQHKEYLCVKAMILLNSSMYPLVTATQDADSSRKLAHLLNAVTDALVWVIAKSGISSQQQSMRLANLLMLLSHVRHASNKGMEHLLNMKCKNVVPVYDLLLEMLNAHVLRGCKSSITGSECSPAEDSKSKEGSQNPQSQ
Procedure: Preparation of Anemarrhena Asphodeloides Bge. from the Liliaceae Family: Samples of Anemarrhena asphodeloides Bge. from the Liliaceae Family were ground to fine powder using a commercial electric herb grinder; 5 grams were weighed and extracted in a) 50 ml of 100% EtOH or b) 50 ml of distilled H2O was simmered at 75° Celsius for 45 minutes. The extracts (a and b) were than decanted and only the soluble material was used.

[1] = five years of therapy; cited from earlier work
[2] = women at high risk for breast cancer; cited from earlier work

effect on extract-stimulated ERE-tk-Luc expression (human ERβ; FIG. 5) | effect on extract-stimulated ERE-tk-Luc expression (human ERβ; FIG. 5, listed as ICI) | effect on extract-stimulated ERE-tk-Luc expression (human ERβ; FIG. 5, listed as Raloxifene) | SMILES | effect on the repression induced by E2 (TNF-RE tkLuc) | activation of TNF-RE tkLuc (TNF-RE tkLuc) | reduction of mortality from breast cancer [1] | reduction of the risk of recurrences [1] | reduction of the risk of primary invasive breast cancer [2]
counteracted | attenuated |  | C[C@]12CC[C@@H]3c4ccc(O)cc4C[C@@H](CCCCCCCCC[S+]([O-])CCCC(F)(F)C(F)(F)F)[C@H]3[C@@H]1CC[C@@H]2O (stereo partly shown) [ICI 182780] | abolished the repression induced by E2 | 2 fold |  |  | 
counteracted |  | attenuated | O=C(c1ccc(OCCN2CCCCC2)cc1)c1c(-c2ccc(O)cc2)sc2cc(O)ccc12 [raloxifene] | abolished the repression induced by E2 | 2 fold |  |  | 
 |  |  | CC/C(=C(\c1ccccc1)c1ccc(OCCN(C)C)cc1)c1ccccc1 [tamoxifen] | abolished the repression induced by E2 | 2 fold | 22% | 42% | 49%
